Patent US9486457B2, “Use of cinnabarinic acid as a modulator of immune responses in autoimmune disorders” (The Regents of the University of California, priority 2010, dated 2016)
Entries after “also recorded” stand apart in the source; their conditions may differ.

Columns and labels:
AHR = biological target: T1, AHR (Mus musculus, UniProt P30561); assay: AHR-responsive (dioxin responsive element) GFP reporter assay in H1G1 mouse hepatoma cells; type: cell-based; conditions: agonist mode
T1 construct: murine hepatoma cell line stably transfected with an AhR-responsive (AhR-eGFP) reporter construct; endogenous in cells
T1 sequence (P30561 10-848): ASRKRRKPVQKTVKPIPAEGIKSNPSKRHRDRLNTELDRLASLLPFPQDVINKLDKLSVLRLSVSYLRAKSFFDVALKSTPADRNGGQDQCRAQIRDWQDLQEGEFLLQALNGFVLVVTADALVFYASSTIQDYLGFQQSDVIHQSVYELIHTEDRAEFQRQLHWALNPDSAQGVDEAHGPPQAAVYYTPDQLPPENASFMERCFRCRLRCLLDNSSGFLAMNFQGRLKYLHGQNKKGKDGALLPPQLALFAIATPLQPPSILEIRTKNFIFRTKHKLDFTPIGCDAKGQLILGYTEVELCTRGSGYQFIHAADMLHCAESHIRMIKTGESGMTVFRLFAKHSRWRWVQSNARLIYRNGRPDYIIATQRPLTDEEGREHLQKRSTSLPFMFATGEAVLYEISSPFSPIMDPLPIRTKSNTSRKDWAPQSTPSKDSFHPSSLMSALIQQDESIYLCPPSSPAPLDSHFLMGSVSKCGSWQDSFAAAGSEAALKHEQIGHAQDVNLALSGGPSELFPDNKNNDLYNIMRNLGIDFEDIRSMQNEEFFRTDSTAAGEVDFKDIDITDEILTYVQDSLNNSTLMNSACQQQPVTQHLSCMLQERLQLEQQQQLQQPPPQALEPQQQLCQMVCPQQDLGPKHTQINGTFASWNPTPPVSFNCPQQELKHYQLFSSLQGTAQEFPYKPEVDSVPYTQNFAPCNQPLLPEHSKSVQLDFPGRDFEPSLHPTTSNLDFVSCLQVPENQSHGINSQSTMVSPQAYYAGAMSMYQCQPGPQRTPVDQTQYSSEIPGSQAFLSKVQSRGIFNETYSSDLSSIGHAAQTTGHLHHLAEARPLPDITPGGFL
Excerpt: (§1) We performed a precursory screen of all tryptophan metabolites including both 3-HKA and 3-HAA to bind to and act as agonists or antagonists of the AHR using two separate assays. First we examined the ability of 3-HKyn, 3-HAA, and PA to displace TCDD binding to the human AHR protein in vitro (20). […] We also measured AHR activation using a mouse hepatoma cell line (H1G1) that stably expresses a green fluorescent protein (GFP) reporter construct downstream of a series of dioxin responsive elements (FIG. 7A) (21).

[1] = tested on: experimental allergic encephalomyelitis (EAE); assay: Experimental allergic/autoimmune encephalomyelitis (EAE) induced with MOG peptide and CFA; type: in vivo, C57BL/6 mice; conditions: for development / induction of EAE (disease occurrence and severity): single dose (1 mg/mouse) at Day 0 within the emulsion containing MOG peptide and adjuvant, compared to DMSO
Procedure: FIGS. 10A and 10B illustrate the number or frequency of cytokine producing cells within the CNS (or spleen) of mice treated at day 0 with 1 dose of CA (1 mg/mouse) or vehicle (DMSO) within the emulsion contain MOG peptide and adjuvant. Representative flow plots are shown at the bottom of the figures. EAE survival curve for 10 animals treated with CA or with DMSO showing that 1/10 animals treated with CA gets sick whereas 9/10 animals treated with vehicle (DMSO) are sick at the indicated timepoint.
However, TCDD and FICZ are both known AHR agonists, like CA, whereas 3,4 DAA appears to act as an antagonist. Therefore the regulation of the Th17/Th22/Treg cell differentiation pathways at the level of the AHR is likely to be more complex than merely reflecting the presence of an agonistic or antagonistic ligand. To assess whether CA was protective in EAE we performed a series of experiments in which CA was administered in a single dose (1 mg/mouse) contained within the emulsion used to induce disease.

human naïve CD4+ T cells = assay: IL-22 induction in cultured human naïve CD4+ T cells stimulated with anti-CD3/anti-CD28 under Th17 polarizing conditions; type: cell-based; conditions: CA 25 μM in FIG. 8D
Excerpt: This is AHR dependent as inclusion of an AHR antagonist fully abrogated effect.
FIG. 8: CA is an endogenous AhR agonist generated by oxidative dimerization of 3-HAA. (A) An alternative pathway of 3-HAA metabolism leads to the generation of CA either by non-enzymatic (oxidation) or enzymatic (laccase, ceruloplasmin) processes. CA is structurally similar to the synthetic AhR ligand TCDD. […] Data are representative of three similar experiments.

[2] = tested on: naïve (CD45RA+CCR7+CD95−CD25−) CD4+ T cells; assay: Foxp3 induction in stimulated naïve CD4+ T cells; type: cell-based, human; conditions: stimulated naïve CD4+ T cells in vitro
Excerpt: FIG. 9: The synthetic 3-HAA analogue 3,4 DAA (Tranilast) is an AhR antagonist and promotes the induction of Foxp3 by stimulated CD4+ T cells. (A) 3,4 DAA shares some structural similarities to 3-HAA (highlighted region).
Therefore we asked whether T cells treated with 3,4 DAA might be prompted to differentiate into Treg cells through upregulation of the transcription factor Foxp3 (26).

lymphocytes = assay: CYP1A1 transcription within lymphocytes; type: cell-based
Excerpt: (§2) 3-HAA is particularly susceptible to oxidation, resulting in the formation of the metabolite cinnabarinic acid (CA) through dimerization of two molecules of 3-HAA (24). […] In addition, CA has potent effects on thymocyte maturation (25) not unlike what has been observed in rodents treated with TCDD (26-28) or in transgenic mice with a constitutively active AHR (29). To test the hypothesis that CA is an AHR ligand, we obtained pure CA, prepared through a chemical synthesis using 3-HAA as a starting material and purified by HPLC, and analyzed its ability to bind to and activate the AHR in vitro.

zebrafish embryos = assay: CYP1A1 induction in zebrafish embryos; type: in vivo; conditions: within 72 hours
Excerpt: as §2

human AHR protein = biological target: T2, human AHR protein (Homo sapiens, UniProt P35869); assay: Displacement of TCDD binding to in vitro translated human AHR protein; conditions: cell-free
T2 sequence (P35869 11-848): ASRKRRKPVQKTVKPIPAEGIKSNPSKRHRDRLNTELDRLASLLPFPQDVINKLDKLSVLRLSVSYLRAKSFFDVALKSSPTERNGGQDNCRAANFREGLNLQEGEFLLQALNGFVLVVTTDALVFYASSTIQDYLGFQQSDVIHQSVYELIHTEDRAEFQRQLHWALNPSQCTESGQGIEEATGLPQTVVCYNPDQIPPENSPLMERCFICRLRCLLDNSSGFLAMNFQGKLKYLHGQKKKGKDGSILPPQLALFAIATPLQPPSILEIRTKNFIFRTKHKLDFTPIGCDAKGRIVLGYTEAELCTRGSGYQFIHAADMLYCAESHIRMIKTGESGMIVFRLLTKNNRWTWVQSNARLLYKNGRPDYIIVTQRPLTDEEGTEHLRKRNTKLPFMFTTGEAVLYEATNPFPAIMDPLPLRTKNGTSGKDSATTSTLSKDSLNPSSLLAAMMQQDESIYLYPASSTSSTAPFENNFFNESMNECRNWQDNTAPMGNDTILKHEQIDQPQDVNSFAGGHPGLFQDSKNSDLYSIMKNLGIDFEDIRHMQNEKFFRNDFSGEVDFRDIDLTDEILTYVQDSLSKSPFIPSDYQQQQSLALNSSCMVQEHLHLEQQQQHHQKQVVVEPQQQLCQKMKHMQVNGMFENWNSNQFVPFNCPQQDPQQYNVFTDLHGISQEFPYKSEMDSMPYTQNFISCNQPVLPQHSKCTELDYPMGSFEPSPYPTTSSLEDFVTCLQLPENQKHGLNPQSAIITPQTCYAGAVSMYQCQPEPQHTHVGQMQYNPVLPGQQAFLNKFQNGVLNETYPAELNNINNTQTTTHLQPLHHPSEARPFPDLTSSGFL
Excerpt: as §1

[3] = single dose 1 mg/mouse in the emulsion

Nc1c(C(=O)O)c2nc3c(C(=O)O)cccc3oc-2cc1=O [Cinnabarinic Acid, cinnabarinic acid]
AHR agonist activity (activation of AHR-responsive reporter) (AHR): activates AHR responsive (Dioxin Responsive Elements)
AHR agonist activity (activation of AHR-responsive reporter) (AHR; listed as CA): able to bind to and activate the AHR at much lower concentrations than that observed for 3-HAA; also recorded: potent agonist of the AhR
animals that get sick (EAE survival curve) ([1]; 10 animals, 1 dose of CA (1 mg/mouse) at day 0, 9/10 with vehicle (DMSO)): 1/10
Foxp3+ Treg cells in the CNS [1, 3]: but not in the CNS
Foxp3+ Treg cells in the spleen [1, 3]: slight, but significant, increase in Foxp3+ Treg cells in the spleen
frequency and number of Th17 and Th22 cells in the spleen [1, 3]: increase in the frequency and number of Th17 and Th22 cells in the spleen
frequency of infiltrating Th17 and Th22 cells in the CNS [1, 3]: decrease in the frequency of infiltrating Th17 and Th22 cells
number of infiltrating T cells in the central nervous system (CNS) [1, 3]: greatly reduced number of infiltrating T cells in the central nervous system (CNS)
development / induction of EAE (disease occurrence and severity) [1]: inhibits the development of experimental allergic encephalomyelitis (EAE); also recorded: inhibits the induction of EAE
development / induction of EAE (disease occurrence and severity) ([1]; listed as CA): suppress autoimmunity in a mouse model of multiple sclerosis; also recorded: significant reduction of disease occurrence and severity; also recorded: almost completely block the development of EAE
development / induction of EAE (disease occurrence and severity) ([1]; listed as Cinnabaric Acid): inhibits the induction of EAE
proliferation of splenocytes on restimulation with MOG peptide ([1]; splenocytes from CA treated mice): significantly greater amount of proliferation
IL-22 induction (human naïve CD4+ T cells): potently induces IL-22
IL-22 induction (human naïve CD4+ T cells; listed as CA): stimulate the differentiation of a newly defined subset of human T cells that produce the cytokine IL-22; also recorded: promoted IL-22 production more strongly than any other tryptophan metabolite tested; also recorded: potently induces IL-22
Foxp3 expression (frequency of CD4+Foxp3+ T cells) [2]: did not appear to promote Foxp3 upregulation
CYP1A1 transcription (lymphocytes): upregulation of CYP1A1 transcription within lymphocytes
CYP1A1 induction (zebrafish embryos): potent induction of CYP1A1 in zebrafish embryos
displacement / inhibition of TCDD binding to human AHR (human AHR protein): displaces Dioxin (TCDD)
displacement / inhibition of TCDD binding to human AHR (human AHR protein; listed as CA): able to bind to and activate the AHR at much lower concentrations than that observed for 3-HAA; also recorded: dose-dependent inhibition of TCDD binding
